US9000012B2 (priority 2009, dated 2015)

Key:
Phytophthora infestans = assay type: in vivo, Phytophthora infestans on tomato; conditions: preventive spray on young tomato plants, 500 ppm of active ingredient, inoculated one day after treatment, evaluated 7 days after inoculation; 0% = untreated control, 100% = no disease
[1] = logP of the compounds of table 1; assay type: physicochemical

Structure (SMILES) | Efficacy (Phytophthora infestans) [%] | logP [1]
CN(C)C(=O)C(=NOCc1cccc(NC(=O)OC(C)(C)C)n1)c1ccccc1 [Example 98] | 85 | 3.37
C#CCC(C)OC(=O)Nc1cccc(CON=C(C(=O)N(C)C)c2ccccc2)n1 (centres unmarked) [Example 101] | 95 | 3.07
CN(C)C(=O)C(=NOCc1cccc(NC(=O)C2COc3ccccc3O2)n1)c1ccccc1 (centres unmarked) [Example 109] | 98 | 3.42
CC(Oc1ccccc1)C(=O)Nc1cccc(CON=C(C(=O)N(C)C)c2ccccc2)n1 (centres unmarked) [Example 111] | 92 | 3.50
COc1ccc(CC(=O)Nc2cccc(CON=C(C(=O)N(C)C)c3ccccc3)n2)cc1 [Example 112] | 100 | 3.00
CN(C)C(=O)C(=NOCc1csc(NC(=O)C2COc3ccccc3O2)n1)c1ccccc1 (centres unmarked) [Example 129] | 92 | 3.15
C#CCCOC(=O)Nc1cccc(CON=C(C(=O)N(C)C)c2ccccc2)n1 [Example 100] | 70 | 1.83
